Measurements published in ChEMBL document CHEMBL3046335, “Prediction of anti-HIV activity of imidoyl thioureas: QSAR approach” (Med Chem Res, 2009).

Tests used:
[1] = test system: Human immunodeficiency virus 1; test: microbe, parasite or virus in culture; details: Human immunodeficiency virus 1, read-out: pIC50 (converted)
Description: Antiviral activity against wild type Human immunodeficiency virus 1

physchem = details: octanol/water
Description: Octanol-water partition coefficient, log P of the compound

Row | SMILES | IC50 [1] | logP (physchem)
1 | N#Cc1ccc(NC(=S)NC(=N)Cc2ccc(Cl)cc2Cl)cc1 | 7 nM | 3.7
2 | CCN/C(Cc1c(Cl)cccc1Cl)=N\C(S)=N\c1ccc(C#N)cc1 | 195 nM | 5.77
3 | CN/C(Cc1c(Cl)cccc1Cl)=N\C(S)=N\c1ccc(C#N)cc1 | 77.4 nM | 6.75
4 | N#Cc1ccc(NC(=S)NC(=N)Cc2c(Cl)cccc2Cl)cc1 | 126 nM | 4.83
5 | CC(C(=N)/N=C(\S)Nc1ccc(C#N)cc1)c1c(Cl)cccc1Cl (stereo not drawn) | 158 nM | 5.95
6 | N#Cc1ccc(NC(=S)NC(=N)Cc2cccc(Cl)c2)cc1 | 67.9 nM | 3.19
7 | N#Cc1ccc(NC(=S)NC(=N)C2(c3c(Cl)cccc3Cl)CC2)cc1 | 676 nM | 6.11
8 | N=C(Cc1c(Cl)cccc1Cl)NC(=S)Nc1ccccc1 | 123 nM | 3.67
9 | N=C(Cc1c(Cl)cccc1Cl)NC(=S)NCCc1ccc(Cl)cc1 | 617 nM | 6.22
10 | N=C(Cc1c(Cl)cccc1Cl)NC(=S)Nc1ccc(Cl)cc1 | 13 nM | 4.19
11 | N#Cc1cccc(NC(=S)NC(=N)Cc2c(Cl)cccc2Cl)c1 | 126 nM | 3.7
12 | Cc1ccccc1CC(=N)/N=C(\S)Nc1ccc(C#N)cc1 | 26 nM | 3.13
13 | N#Cc1ccc(N/C(S)=N/C(=N)Cc2c(F)cccc2F)cc1 | 6 nM | 2.95
14 | CN(C)C(Cc1c(Cl)cccc1Cl)NC(=N)Nc1ccc(C#N)cc1 (stereo not drawn) | 757 nM | 7.06
15 | N#Cc1ccc(NC(=S)NC(=N)c2c(Cl)cccc2Cl)cc1 | 43.7 nM | 5.46
16 | C/N=C(/Cc1c(Cl)cccc1Cl)NC(=O)Nc1ccc(C#N)cc1 | 214 nM | 5.96
17 | CN(C)C(Cc1c(Cl)cccc1Cl)/N=C(\S)Nc1ccc(C#N)cc1 (stereo not drawn) | – | 5.64
18 | N#C/N=C(\NCCc1ccc(C#N)cc1)N/C(Cc1c(Cl)cccc1Cl)=N\c1ccccc1 | 158 nM | 5.98
19 | N#Cc1ccc(NC(=S)NC(=N)Cc2c(Cl)ccc(Cl)c2Cl)cc1 | 5 nM | 4.22
20 | N=C(Cc1c(Cl)cccc1Cl)NC(=S)Nc1ccc(Cl)cc1Cl | 347 nM | 4.7
21 | N#Cc1ccc(NC(=S)NC(=N)Cc2ccccc2Cl)cc1 | 14 nM | 3.19
22 | N#Cc1ccc(NC(=O)NC(=N)Cc2c(Cl)cccc2Cl)cc1 | 15 nM | 3.71
23 | N=C(Cc1c(Cl)cccc1Cl)NC(=S)NCc1ccc(Cl)cc1 | 692 nM | 5.97
24 | N#Cc1ccc(NC(=S)NC(=N)Cc2ccc(Cl)cc2)cc1 | 148 nM | 3.19
25 | N#Cc1ccc(NC(=S)NC(=N)CCc2c(Cl)cccc2Cl)cc1 | 525 nM | 5.79
26 | N#Cc1ccc(NC(=S)NC(=N)Cc2ccccc2)cc1 | 380 nM | 2.67
27 | COc1ccccc1CC(=N)/N=C(\S)Nc1ccc(C#N)cc1 | 30 nM | 2.42
